# US9713332B2, “Glyphosate application for weed control in Brassica” (priority 2013, dated 2017)
# Assays:
# [1] = system: canola event DP-73496-4 (GAT1); assay: Herbicide efficacy field trials, determination of yield; assay type: in vivo
# Description: Field trials were split plot designed with glyphosate treatments as the main factor and entries as the subplot. The split-plot design was used since more than one glyphosate treatment in each location was evaluated, where a different treatment to an individual plot was applied. In split-plot, the levels of the main-plot factor (glyphosate treatments) and the sub-plot factors (individual event entries) within the main-plots were randomized.
# The following treatments with glyphosate were used as detailed below at different growth stages. In these tests, 1X glyphosate treatment was at 675 g ae/ha, 2X glyphosate treatment was at 1350 g ae/ha, 3X glyphosate treatment was at 2025 g ae/ha and 4X glyphosate treatment was at 2700 g ae/ha as active ingredient of glyphosate. All treatments were applied using a mechanical sprayer. For example, in Treatment 1 below, “2X cotyledon” describes a treatment of 1350 g ae/ha of glyphosate at the cotyledon growth stage. Various treatments were tested over a two year period and are described below.
# (§1) • 1. 2X cotyledon • 2. 2X 3-5 leaf stage • 3. 2X cot+2X 3-5 leaf stage • 4. 2X cot+2X bolting BBCH55 • 5. 4X cotyledon • 6. 4X 3-5 leaf stage Treatments Tested in Year 2: • 1. 1X cotyledon+1X 3-5 leaf stage • 2. 2X cotyledon+2X 3-5 leaf stage • 3. 1X cotyledon+1X green bud BBCH51 • 4. 2X cotyledon+2X green bud BBCH51 • 5. 1X cotyledon+1X 10% flower BBCH61 • 6. 2X cotyledon+2X 10% flower BBCH61
# To reduce the growth of weeds in the control plots, conventional herbicides or mechanical pulling of weeds were used as needed. There was no glyphosate applied to the control plots and was used as the control/base to which other glyphosate treatments were compared. The control plots may have had one or more weeds present during the growing season. Control is based on conventional herbicides that are registered for use in all canola.
# Plots were considered desiccated when 60-70% of the seed had turned from green to black colour. Combining occurred 5-14 days after desiccation depending on the weather conditions. Each plot was harvested individually. Moisture and weight were recorded directly on the combine. Yield was determined for the GAT1 event.
# Various locations were used in the test. Trials were evaluated across 10 locations in both Year 1 and Year 2. Locations included several sites in the short, mid, and long season zones across both years.
# The event that was tested was canola event DP-73496-4 (GAT1) (PCT International Patent Application No. PCT/US2010/058011, incorporated by reference).
# Late stage glyphosate applications are applications of glyphosate at later growth stages than on the glyphosate label. […]
# GAT1 and GAT2 events [2] = assay: Herbicide efficacy trials in 9 locations, herbicide-induced necrosis and chlorosis injury; assay type: in vivo, Brassica
# Description: (§2) Transgenic events expressing GAT1 and GAT2 genes were tested herein. GAT1, as mentioned herein is the Brassica GAT event DP-073496-4 (PCT International Patent Application No. PCT/US2010/058011, incorporated by reference). GAT2, as mentioned herein is another transgenic Brassica line expressing a GAT variant.
# Chlorosis percent injury describes a visual rating of the percentage of the plant with a yellowing of the apical meristem, newest leaves or older leaves, where 100% denotes that all tissue is yellow, and 0% denotes the absence of yellowing tissue in plants treated with herbicide.
# GAT2 events were subjected to herbicide efficacy trials along with the GAT1 as diagonal check in 9 different locations. The herbicide efficacy trials consisted of 6 treatments that included: a control with no glyphosate, 2X, 4X or 8X glyphosate administered at the 3-5 leaf stage (1X=675 g ae/ha), a 2X administered during the 3-5 leaf stage and during the green bud stage (+2X Green Bud), and a 2X administered during the 3-5 leaf stage and during 10% bloom (+2X 10% Bloom). Herbicide-induced necrosis and chlorosis injury was recorded at leaf stages 5, 10, 21 and 30 DAT (days after treatment). […] Yield from different treatments was expressed as a percent to the 2X treatment at the 3 to 5 leaf stage. […] The application of 4X glyphosate at the 3-5 leaf stage led to a 6 to 8% decrease in yield compared to the 2X treatment, and at the 8X rate, yield decreased from 10 to 12% in treated events compared to the 2X treatment (FIG. 3).
# [3] = system: canola event DP-73496-4 (GAT1); assay: Herbicide efficacy field trials, chlorosis / crop response after late stage glyphosate application; assay type: in vivo
# Description: Field trials were split plot designed with glyphosate treatments as the main factor and entries as the subplot. Entries were randomized within the split factor, and the split was randomized within the replicate.
# The following treatments with glyphosate were used as detailed below at different growth stages. In these tests, 1X glyphosate treatment was 675 g ae/ha, 2X glyphosate treatment was 1350 g ae/ha, 3X glyphosate treatment was 2025 g ae/ha and 4X glyphosate treatment was 2700 g ae/ha. All treatments were applied using a mechanical sprayer. For example, in Treatment 1 below, “2X cotyledon” describes a treatment of 1350 g ae/ha of glyphosate at the cotyledon growth stage. Various treatments were tested over a two year period and are described below.
# as §1
# Percent chlorosis was determined. Visual rating of chlorosis on plants was taken during the period indicated (i.e. 3-5 days) after spray application. Yellowing of the apical meristem, newest leaves or older leaves indicated herbicide-induced chlorotic injury. 100%=all tissue is yellow, 0%=no signs of yellowing tissue.
# Late stage glyphosate applications are applications of glyphosate at later growth stages than on the glyphosate label. […] In Year 1, the expanded window application of glyphosate was 2X cot+2X bolting BBCH55; a 2X treatment during the cotyledon stage and an additional 2X treatment during the plant growth stage where individual flower buds (main inflorescence) are visible but are still closed. In Year 2, 1X cotyledon, 1X green bud BBCH51; 2X cotyledon, 2X green bud BBCH51; 1X cotyledon, 1X 10% flower BBCH61; and 2X cotyledon, 2X 10% flower BBCH61 expanded window treatments were included.
# GAT1 and GAT2 events [4] = assay: Herbicide efficacy trials in 9 locations, yield as percent to the 2X treatment at the 3 to 5 leaf stage; assay type: in vivo, Brassica; conditions: 2X at the 3-5 leaf stage and 2X during green bud or 10% bloom stage; FIG. 3
# Description: as §2
# Percentage of yield relative to 2X describes the yield obtained for the GAT events treated with respective glyphosate herbicide treatments compared to the same GAT events subjected to a solution containing 2X glyphosate treatment at the 3 to 5 leaf stage, expressed as a percentage of the 2X treatment at the 3 to 5 leaf stage.
# GAT2 events were subjected to herbicide efficacy trials along with the GAT1 as diagonal check in 9 different locations. The herbicide efficacy trials consisted of 6 treatments that included: a control with no glyphosate, 2X, 4X or 8X glyphosate administered at the 3-5 leaf stage (1X=675 g ae/ha), a 2X administered during the 3-5 leaf stage and during the green bud stage (+2X Green Bud), and a 2X administered during the 3-5 leaf stage and during 10% bloom (+2X 10% Bloom). Herbicide-induced necrosis and chlorosis injury was recorded at leaf stages 5, 10, 21 and 30 DAT (days after treatment). […] Yield from different treatments was expressed as a percent to the 2X treatment at the 3 to 5 leaf stage. […]
smiles,measurement,setting,value
O=C(O)CNCP(=O)(O)O [glyphosate],yield compared to the control treatment,"[1]; Year 1, 2X Cot and 2X Bolting BBCH55",not significantly different
same,yield compared to the control treatment,"[1]; Year 2, late split applications at 2X glyphosate (1350 g ae/ha), BBCH51 and BBCH61",did not result in yield reduction
same,yield compared to the control treatment,"[1]; Year 2, split applications 1X Cot and 1X BBCH51 (green bud), 1X Cot and 1X BBCH61 (10% flower), four backgrounds, 1X = 675 g ae/ha",did not result in yield reduction
same,yield of GAT1 compared to the controls,[1]; at X treatment,did not show a reduction in yield
same,chlorotic injury,"GAT1 and GAT2 events [2]; both GAT1 and GAT2 events, even at 8X spray rates, and during green bud and 10% bloom, FIG. 2",Negligible
same,herbicide-induced necrotic injury,"GAT1 and GAT2 events [2]; even at 8X spray rates (1X = 675 g ae/ha), FIG. 1",minimally observed
same,"herbicide-induced injury (necrosis, chlorosis) beyond 10 DAT","GAT1 and GAT2 events [2]; rated 5, 10, 21 and 30 DAT, 2X, 4X, 8X at 3-5 leaf, 2X+2X green bud, 2X+2X 10% bloom",No injury was observed
same,chlorosis,"[3]; Year 1, 2X Cot and 2X Bolting BBCH55 (2X = 1350 g ae/ha), all three hybrids, one location",1%
same,recovery of transient chlorosis,"[3]; Year 1, 2X Cot and 2X Bolting BBCH55, 10 days after glyphosate application",Full recovery
same,chlorosis,"[3]; Year 1, 2X Cot and 2X Bolting BBCH55, one hybrid background, second location",3%
same,crop response,"[3]; Year 1, 2X Cot and 2X Bolting BBCH55, remaining eight locations",no crop response
same,crop response,"[3]; Year 2, extended window glyphosate treatments, four GAT-expressing canola backgrounds",did not have any crop response
same,differences in yield compared to the 2X treatment at 3-5 leaf stage,GAT1 and GAT2 events [4],no appreciable differences in yield
